From patent US20240166599A1, “INDOLE DERIVATIVES AS SEROTONERGIC AGENTS USEFUL FOR THE TREATMENT OF DISORDERS RELATED THERETO” (Mindset Pharma Inc., priority 2021, published 2024)

Experiments:
[1] = Liver microsomes stability, rat; details: for Remaining Percentage (%) after 60 min, Rat: rat liver microsomes with NADPH, 2 μM; for half-life at 2 μM / microsomal CLint at 2 μM: rat, microsomes
[2] = Liver microsomes stability, human; details: for Remaining Percentage (%) after 60 min, Human: human liver microsomes with NADPH, 2 μM; for half-life at 2 μM / microsomal CLint at 2 μM: human, microsomes
Procedure: (§1) The objective of this study was to estimate in vitro metabolic stability of representative compounds of the application in pooled human and male mouse liver microsomes. The concentrations of parent compounds in reaction systems were evaluated by LC-MS/MS for estimating the stability in pooled human and male mouse liver microsomes. The in vitro intrinsic clearances of test compounds were determined as well.
(§2) A master solution in the “Incubation Plate” containing phosphate buffer, ultra-pure H2O, MgCl2 solution and liver microsomes was made according to Table 3. The mixture was pre-warmed at 37° C. water bath for 5 minutes.
(§3) 40 μL of 10 mM NADPH solution was added to each well. The final concentration of NADPH was 1 mM. The negative control samples were prepared by replacing NADPH with 40 μL of ultra-pure H2O. Samples were prepared in duplicate. Negative controls were prepared in singlet.
(§4) The reaction was started with the addition of 4 μL of 200 μM test compounds or control compounds to each master solution to get the final concentration of 2 μM. This study was performed in duplicate.
(§5) Aliquots of 50 μL were taken from the reaction solution at 0, 15, 30, 45 and 60 minutes. The reaction solutions were stopped by the addition of 4 volumes of cold methanol with IS (100 nM alprazolam, 200 nM imipramine, 200 nM labetalol and 2 μM ketoprofen). Samples were centrifuged at 3,220 g for 40 minutes. Aliquot of 90 μL of the supernatant was mixed with 90 μL of ultra-pure H2O and then was used for LC-MS/MS analysis.
(§6) LC/MS analysis was performed for all samples from this study using a Shimadzu liquid chromatograph separation system equipped with degasser DGU-20A5R; solvent delivery unit LC-30AD; system controller SIL-30AC; column oven CTO-30A; CTC Analytics HTC PAL System. Mass spectrometric analysis was performed using an Triple Quad™ 5500 instrument.
(§7) All calculations were carried out using Microsoft Excel. Peak areas were determined from extracted ion chromatograms. The slope value, k, was determined by linear regression of the natural logarithm of the remaining percentage of the parent drug vs. incubation time curve.
(§8) The in vitro half-life (in vitro t1/2) was determined from the slope value:
(§9) Conversion of the in vitro t1/2 (min) into the in vitro intrinsic clearance (in vitro CLint, in μL/min/mg proteins) was done using the following equation (mean of duplicate determinations): […]

[3] = Liver microsomes stability, mouse; details: for half-life at 2 μM / microsomal CLint at 2 μM: male, mouse, microsomes; for Remaining Percentage (%) after 60 min, Mouse: mouse liver microsomes with NADPH, 2 μM
Procedure: as §1, §2, §3, §4, §5, §6, §7, §8, §9

[4] = target: T1, human 5-HT2A (h5-HT2A) receptor (Homo sapiens, UniProt P28223); experiment: FLIPR assay, human 5-HT2A, agonist mode; type: cell-based
T1 construct: expressed in transfected cells
Procedure: I.c. Experimental Methods and Procedures: • 1. […] One day before the assays, the cells were detached using TrypLE™ Express and cells were counted using cell counter. […] 20000 cells/well were seeded in 30 μl/well culture medium to a 384-well cell plate and cells were incubated overnight at 37° C., 5% (v/v) CO2. • 4. On the assay day, 2×dye solution was prepared following the manual of the FLIPR® Calcium 6 Assay Kit: i. The dye was diluted with assay buffer (20 mM HEPES in 1×HBSS, PH7.4); ii. Probenecid was added to the final concentration of 5 mM; iii. […] Medium was removed from cell plate by flicking the cell plate on towel papers. • 6. […] The cell plate was placed on plate shaker, the plate was agitated at 600 rpm for 2 minutes. The plate was incubated at 37° C. for 2 hours followed by additional 15-minute incubation at 25° C. • 8. 3×compound in assay buffer was prepared: a. Reference compounds were diluted to required concentration with DMSO. The compounds were added to a 384-well compound plate; b. Serial dilutions were performed; c. 10 mM test compounds were added to the compound plate, and 3-fold serial dilutions were performed. d. […] Add 20 μl/well assay buffer to the compound plate; f. […] The cell plate, compound plate and tips were put into FLIPR, 10 μl of 3× compound was transferred to the cell plate per well with FLIPR.
• i. […] Calculated the percentage activation by using following equation: […]

human 5-HT2A receptor = human 5-HT2A receptor (Homo sapiens, UniProt P28223); experiment: biochemical
Chain of human 5-HT2A receptor (P28223 whole entry): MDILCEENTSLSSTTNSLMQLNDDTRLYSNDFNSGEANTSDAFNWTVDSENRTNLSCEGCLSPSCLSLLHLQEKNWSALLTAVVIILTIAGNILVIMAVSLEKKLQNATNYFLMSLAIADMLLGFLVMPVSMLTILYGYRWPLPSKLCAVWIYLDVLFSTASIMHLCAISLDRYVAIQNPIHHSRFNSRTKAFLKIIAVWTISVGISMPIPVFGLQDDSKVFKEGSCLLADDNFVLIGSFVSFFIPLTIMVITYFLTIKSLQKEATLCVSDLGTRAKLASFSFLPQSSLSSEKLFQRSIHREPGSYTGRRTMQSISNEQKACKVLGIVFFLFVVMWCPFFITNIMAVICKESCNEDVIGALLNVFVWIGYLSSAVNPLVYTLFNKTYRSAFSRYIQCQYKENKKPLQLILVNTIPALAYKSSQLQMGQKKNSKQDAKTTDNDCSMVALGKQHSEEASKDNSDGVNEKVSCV
Procedure: Human 5-HT2A: Radioligand Binding Assay:
II.3 Experiment Procedure: • i. Prepared the assay buffer following the table below;
• ii. Preparation of 8 doses of reference and test compounds starting from 10 mM stock solution as requested by 5-fold serial dilutions with 100%; • iii. Prepared (v/v) DMSO: a. 50 μl/well of 0.5% (v/v) PEI was added to UniFilter-96 GF/B plates. The plates were sealed and incubates at 4° C. for 3 hrs; b. After incubation, the plates were washed 3 times with ice-cold wash buffer (50 mM Tris, pH7.4); • iv. Preparation of assay plates: a. Cell membrane were diluted with assay buffer and 330 μl/well was added to 96 round deep well plates to reach a concentration of 20 μg/well; b. 8 concentrations of reference or test compounds were prepared and 110 μl/well was added to 96 round deep well plates; c. [3H]-ketanserin was diluted with assay buffer to 5 nM (5× final concentration) and 110 μl/well was added to 96 round deep well plates. • v. The plate was centrifuged at 1000 rpm for 30 secs and then agitated at 600 rpm, R.T. for 5 min. • vi. The plates were sealed and incubates at 27° C. for 90 min. • vii. The incubation was stopped by vacuum filtration onto GF/B filter plates followed by 4 times washing with ice-cold wash buffer (50 mM Tris, pH7.4). • viii. […] The filter plates were sealed and 40 μl/well of scintillation cocktail was added. • x. The plate was read by using a Microbeta2 microplate counter.
For reference and test compounds, the results are expressed as % Inhibition, using the normalization equation: N=100−100×(U−C2)/(C1−C2), where U is the unknown value, C1 is the average of high controls, and C2 is the average of low controls.

T1 sequence (P28223 whole entry): as above

| SMILES | Remaining Percentage (%) after 60 min, Rat [1] | half-life at 2 μM [1] | microsomal CLint at 2 μM [1] | Remaining Percentage (%) after 60 min, Human [2] | half-life at 2 μM [2] | microsomal CLint at 2 μM [2] | half-life at 2 μM [3] | microsomal CLint at 2 μM [3] | Remaining Percentage (%) after 60 min, Mouse [3] | EC50 [4] | IC50 (human 5-HT2A receptor) |
| --- | --- | --- | --- | --- | --- | --- | --- | --- | --- | --- | --- |
| [2H]C([2H])([2H])Oc1ccc2[nH]cc(C([2H])([2H])C([2H])([2H])N(C([2H])([2H])[2H])C([2H])([2H])[2H])c2c1 [I-A-6, 2-(5-(methoxy-d3)-1H-indol-3-yl)-N,N-bis(methyl-d3)ethan-1-amine-1,1,2,2-d4] | 5.25% | 9.88 min | 9.26 µL/min/mg | 15.50% | 2.3 min | 16.4 µL/min/mg | 97.5 min | 36.8 µL/min/mg | 65.29% | – | – |
| [2H]c1[nH]c2c([2H])c([2H])c([2H])c([2H])c2c1CCN(C)C [I-A-2, 2-(1H-indol-3-yl-2,4,5,6,7-d5)-N,N-dimethylethan-1-amine] | 17.65% | 24 min | 36 µL/min/mg | 0.76% | 8.52 min | 18.8 µL/min/mg | 17.4 min | 41.2 µL/min/mg | 59.38% | < 1 µM | < 0.5 µM |
| [2H]C([2H])([2H])N(C([2H])([2H])[2H])C([2H])([2H])C([2H])([2H])c1c[nH]c2ccccc12 [I-A-1, 2-(1H-indol-3-yl)-N,N-bis(methyl-d3)ethan-1-amine-1,1,2,2-d4] | 9.38% | 17.6 min | 39.7 µL/min/mg | 0.46% | 7.73 min | 19 µL/min/mg | 87.2 min | 39.2 µL/min/mg | 62.07% | < 1 µM | < 0.5 µM |
| CN(C)CCc1c[nH]c2ccccc12 [DMT, N,N-dimethyltryptamine, reference compound] | – | – | – | – | – | – | – | – | – | < 1 µM | < 0.5 µM |
